Measured values from patent US10316049B2, “Tank-binding kinase inhibitor compounds” (Gilead Sciences, Inc., priority 2015, dated 2019).

Legend:
IKKε = target: T1, IKKε (Homo sapiens, UniProt Q14164); assay: TR-FRET enzymatic activity assay, IKKε; assay type: biochemical; details: read-out: IKKϵ IC50; also: full length recombinant IKKε at 0.3 nM
T1 construct: TBK1 and IKKε were expressed and purified as full length recombinant proteins; made in house
T1 sequence (Q14164 1-716): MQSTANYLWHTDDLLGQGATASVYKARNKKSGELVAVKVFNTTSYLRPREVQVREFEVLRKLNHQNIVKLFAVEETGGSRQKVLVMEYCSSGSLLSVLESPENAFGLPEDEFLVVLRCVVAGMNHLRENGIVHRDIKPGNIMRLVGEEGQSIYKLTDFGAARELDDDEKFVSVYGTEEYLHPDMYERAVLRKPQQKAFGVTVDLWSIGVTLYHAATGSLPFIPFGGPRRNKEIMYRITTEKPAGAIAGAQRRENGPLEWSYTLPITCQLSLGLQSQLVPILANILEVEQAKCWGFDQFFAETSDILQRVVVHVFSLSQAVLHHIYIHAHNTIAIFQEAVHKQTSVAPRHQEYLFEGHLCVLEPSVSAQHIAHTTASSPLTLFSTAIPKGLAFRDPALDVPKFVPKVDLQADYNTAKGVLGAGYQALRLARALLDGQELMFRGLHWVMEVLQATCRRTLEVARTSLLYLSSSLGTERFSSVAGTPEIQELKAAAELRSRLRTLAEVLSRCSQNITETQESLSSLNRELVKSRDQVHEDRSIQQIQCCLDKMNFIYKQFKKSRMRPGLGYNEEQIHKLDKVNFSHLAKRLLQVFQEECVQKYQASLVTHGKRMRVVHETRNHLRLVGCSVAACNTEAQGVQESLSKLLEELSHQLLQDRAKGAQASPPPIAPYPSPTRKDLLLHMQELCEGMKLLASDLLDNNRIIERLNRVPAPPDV
In short: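 IC50 values are geometric means of at least four determinations, fitted to a four-parameter curve after normalising to 1 μM staurosporine and DMSO. Signal: Eu-cryptate anti-phospho antibody plus 125 nM streptavidin-XL665 on a biotinylated peptide. Full-length recombinant enzyme reacted 240 min, 25 °C, then EDTA-quenched.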

TBK1 = target: T2, TBK1 (Homo sapiens, UniProt Q9UHD2); assay: TR-FRET enzymatic activity assay, TBK1; assay type: biochemical; also: full length recombinant TBK1 at 2.5 nM
T2 construct: TBK1 and IKKε were expressed and purified as full length recombinant proteins; made in house
T2 sequence (Q9UHD2 1-729): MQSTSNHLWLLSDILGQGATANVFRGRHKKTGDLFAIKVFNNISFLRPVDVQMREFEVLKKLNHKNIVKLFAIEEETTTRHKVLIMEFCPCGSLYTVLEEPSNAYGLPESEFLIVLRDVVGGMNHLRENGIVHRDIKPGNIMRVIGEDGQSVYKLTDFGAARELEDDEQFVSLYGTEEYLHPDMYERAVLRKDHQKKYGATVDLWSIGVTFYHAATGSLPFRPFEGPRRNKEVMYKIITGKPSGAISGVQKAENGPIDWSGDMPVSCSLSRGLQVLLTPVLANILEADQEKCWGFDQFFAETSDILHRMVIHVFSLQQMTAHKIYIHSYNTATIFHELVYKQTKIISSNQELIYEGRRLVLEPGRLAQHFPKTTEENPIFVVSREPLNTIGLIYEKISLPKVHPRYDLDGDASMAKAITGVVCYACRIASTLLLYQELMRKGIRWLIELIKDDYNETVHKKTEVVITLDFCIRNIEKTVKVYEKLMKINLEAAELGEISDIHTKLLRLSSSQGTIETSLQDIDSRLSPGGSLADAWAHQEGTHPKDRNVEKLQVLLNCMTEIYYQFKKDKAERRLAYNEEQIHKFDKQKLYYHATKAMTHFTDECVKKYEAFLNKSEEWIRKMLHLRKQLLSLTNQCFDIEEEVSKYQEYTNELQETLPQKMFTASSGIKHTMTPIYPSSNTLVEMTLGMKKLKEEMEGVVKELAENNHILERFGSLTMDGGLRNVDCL
In short: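 TR-FRET detected phosphorylation of a biotinylated serine/threonine peptide using 125 nM streptavidin XL665 plus europium-labelled anti-phospho antibody. Reactions with full-length recombinant kinase ran 240 min at 25 °C before EDTA quench. Values are geometric-mean IC50s (n ≥ 4) from four-parameter dose-response fits against staurosporine and DMSO controls.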

C[C@H](N)C(=O)OCC(=O)N1CC[C@H](Oc2ccc(-c3cc(NC(=O)C4CC4)ncn3)cc2C#N)C(F)(F)C1 [Example 159, 2-((S)-4-(2-cyano-4-(6-(cyclopropanecarboxamido)pyrimidin-4-yl)phenoxy)-3,3-difluoropiperidin-1-yl)-2-oxoethyl L-Alaninate]
IC50 (IKKε): 39.3 nM | IC50 (TBK1): 12.8 nM
